{"source": "paper PMC12888861", "about": "“Antibacterial activity of enmetazobactam against Acinetobacter spp.: a molecular dissection of mechanism of action and resistance determinants” (Antimicrobial Agents and Chemotherapy, 2025)", "key": {"[1]": {"tested_on": "A. non-baumannii isolates (n = 87)", "assay": "MIC, broth microdilution (EUCAST), A. non-baumannii isolates", "assay_type": "cell-based, Acinetobacter spp. (non-baumannii)", "conditions": "for MIC: read-out: MIC", "summary_of_the_method": "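Broth microdilution per EUCAST v.15 guidelines on clinical Acinetobacter isolates from a Spanish 2020 multicenter collection; enmetazobactam also tested alone. A. baumannii ATCC 19606 served as reference strain, in duplicate assays.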"}, "[2]": {"tested_on": "Acinetobacter spp. clinical isolates", "assay": "MBC testing, nine clinical isolates", "assay_type": "cell-based", "protocol": "In order to determine the bactericidal activity of enmetazobactam, MBC testing was carried out by subculturing 100 μL aliquots from wells containing antimicrobial concentrations equal to or greater than the MIC of enmetazobactam onto Mueller-Hinton agar plates. […] The MBCs were evaluated for a total of nine clinical isolates: (i) three CRAB, (ii) three carbapenem-susceptible A. baumannii, and (iii) three A. non-baumannii isolates. The plates were incubated at 37°C for 24 h, and viable colonies were counted."}, "[3]": {"tested_on": "carbapenem-resistant CHDL-producing A. baumannii isolates (OXA-23, OXA-24/40, OXA-58)", "assay": "Checkerboard synergy assay (FIC index)", "assay_type": "cell-based, Acinetobacter baumannii", "conditions": "Acinetobacter baumannii, checkerboard sulbactam x enmetazobactam, alone or in presence of the partner", "protocol": "Checkerboard assays were performed to assess synergistic interactions between the cefepime/enmetazobactam combination and sulbactam, as well as between enmetazobactam alone and either sulbactam or colistin. […] The assays were conducted with three multidrug-resistant A. baumannii isolates from the Spanish Multicenter Collection, each producing a different OXA-type carbapenemase: OXA-23, OXA-24/40, or OXA-58. The FIC index was calculated and interpreted as follows: FICindex ≤ 0.5, synergy; FICindex > 0.5–4, no synergy; and FICindex > 4, antagonism ([33], [34])."}, "[4]": {"conditions": "Acinetobacter, A. non-baumannii isolates (n=87), ETZ fixed 8 mg/L in combinations"}}, "note": "Read-outs that look alike come from different tables or passages of the source.", "data": [{"smiles": "CC1(C)[C@H](C(=O)O)N2C(=O)C[C@H]2S1(=O)=O", "note": "[sulbactam]", "values": [{"measurement": "MIC", "setting": "[1]; Acinetobacter pittii, isolate NO-Ab82, Acinetobacter pittii, in combinations ETZ fixed at 8 mg/L", "result": 0.5, "unit": "µg/mL"}, {"measurement": "MIC", "setting": "[1]; Acinetobacter pittii, isolate NO-Ab89, Acinetobacter pittii, in combinations ETZ fixed at 8 mg/L", "result": 0.5, "unit": "µg/mL"}, {"measurement": "MIC", "setting": "[1]; Acinetobacter pittii, isolate NO-Ab90, Acinetobacter pittii, in combinations ETZ fixed at 8 mg/L", "result": 0.5, "unit": "µg/mL"}, {"measurement": "MIC", "setting": "[1]; Acinetobacter pittii, isolate NO-Ab97, Acinetobacter pittii, in combinations ETZ fixed at 8 mg/L", "result": 1, "unit": "µg/mL"}, {"measurement": "MIC", "setting": "[1]; Acinetobacter pittii, isolate NO-Ab105, Acinetobacter pittii, in combinations ETZ fixed at 8 mg/L", "result": 1, "unit": "µg/mL"}, {"measurement": "MIC", "setting": "[1]; Acinetobacter pittii, isolate NO-Ab106, Acinetobacter pittii, in combinations ETZ fixed at 8 mg/L", "result": 0.5, "unit": "µg/mL"}, {"measurement": "MIC", "setting": "[1]; Acinetobacter pittii, isolate NO-Ab107, Acinetobacter pittii, in combinations ETZ fixed at 8 mg/L", "result": 0.5, "unit": "µg/mL"}, {"measurement": "MIC", "setting": "[1]; Acinetobacter pittii, isolate NO-Ab111, Acinetobacter pittii, in combinations ETZ fixed at 8 mg/L", "result": 1, "unit": "µg/mL"}, {"measurement": "MIC", "setting": "[1]; Acinetobacter pittii, isolate NO-Ab113, Acinetobacter pittii, in combinations ETZ fixed at 8 mg/L", "result": 1, "unit": "µg/mL"}, {"measurement": "MIC", "setting": "[1]; Acinetobacter pittii, isolate NO-Ab118, Acinetobacter pittii, in combinations ETZ fixed at 8 mg/L", "result": 2, "unit": "µg/mL"}, {"measurement": "MIC", "setting": "[1]; Acinetobacter pittii, isolate NO-Ab135, Acinetobacter pittii, in combinations ETZ fixed at 8 mg/L", "result": 0.5, "unit": "µg/mL"}, {"measurement": "MIC", "setting": "[1]; Acinetobacter pittii, isolate NO-Ab145, Acinetobacter pittii, in combinations ETZ fixed at 8 mg/L", "result": 1, "unit": "µg/mL"}, {"measurement": "MIC", "setting": "[1]; Acinetobacter pittii, isolate NO-Ab151, Acinetobacter pittii, in combinations ETZ fixed at 8 mg/L", "result": 2, "unit": "µg/mL"}, {"measurement": "MIC", "setting": "[1]; Acinetobacter pittii, isolate NO-Ab154, Acinetobacter pittii, in combinations ETZ fixed at 8 mg/L", "result": 0.5, "unit": "µg/mL"}, {"measurement": "MIC", "setting": "[1]; Acinetobacter pittii, isolate NO-Ab157, Acinetobacter pittii, in combinations ETZ fixed at 8 mg/L", "result": 1, "unit": "µg/mL"}, {"measurement": "MIC", "setting": "[1]; Acinetobacter pittii, isolate NO-Ab162, Acinetobacter pittii, in combinations ETZ fixed at 8 mg/L", "result": 0.5, "unit": "µg/mL"}, {"measurement": "MIC", "setting": "[1]; Acinetobacter pittii, isolate NO-Ab164, Acinetobacter pittii, in combinations ETZ fixed at 8 mg/L", "result": 0.5, "unit": "µg/mL"}, {"measurement": "MIC", "setting": "[1]; Acinetobacter pittii, isolate NO-Ab178, Acinetobacter pittii, in combinations ETZ fixed at 8 mg/L", "result": 0.5, "unit": "µg/mL"}, {"measurement": "MIC", "setting": "[1]; Acinetobacter pittii, isolate NO-Ab197, Acinetobacter pittii, in combinations ETZ fixed at 8 mg/L", "result": 0.5, "unit": "µg/mL"}, {"measurement": "MIC", "setting": "[1]; Acinetobacter proteolyticus, isolate NO-Ab99, Acinetobacter proteolyticus, in combinations ETZ fixed at 8 mg/L", "result": 1, "unit": "µg/mL"}, {"measurement": "MIC", "setting": "[1]; Acinetobacter proteolyticus, isolate NO-Ab102, Acinetobacter proteolyticus, in combinations ETZ fixed at 8 mg/L", "result": 1, "unit": "µg/mL"}, {"measurement": "MIC", "setting": "[1]; Acinetobacter proteolyticus, isolate NO-Ab210, Acinetobacter proteolyticus, in combinations ETZ fixed at 8 mg/L", "result": 0.25, "unit": "µg/mL"}, {"measurement": "MIC", "setting": "[1]; Acinetobacter radioresistens, isolate NO-Ab175, Acinetobacter radioresistens, in combinations ETZ fixed at 8 mg/L", "result": 1, "unit": "µg/mL"}, {"measurement": "MIC", "setting": "[1]; Acinetobacter radioresistens, isolate NO-Ab215, Acinetobacter radioresistens, in combinations ETZ fixed at 8 mg/L", "result": 0.25, "unit": "µg/mL"}, {"measurement": "MIC", "setting": "[1]; Acinetobacter ursingii, isolate NO-Ab3, Acinetobacter ursingii, in combinations ETZ fixed at 8 mg/L", "result": 0.25, "unit": "µg/mL"}, {"measurement": "MIC", "setting": "[1]; Acinetobacter ursingii, isolate NO-Ab64, Acinetobacter ursingii, in combinations ETZ fixed at 8 mg/L", "result": 1, "unit": "µg/mL"}, {"measurement": "MIC", "setting": "[1]; Acinetobacter ursingii, isolate NO-Ab87, Acinetobacter ursingii, in combinations ETZ fixed at 8 mg/L", "result": 0.12, "unit": "µg/mL"}, {"measurement": "MIC", "setting": "[1]; Acinetobacter ursingii, isolate NO-Ab103, Acinetobacter ursingii, in combinations ETZ fixed at 8 mg/L", "result": 0.5, "unit": "µg/mL"}, {"measurement": "MIC", "setting": "[1]; Acinetobacter ursingii, isolate NO-Ab119, Acinetobacter ursingii, in combinations ETZ fixed at 8 mg/L", "result": 0.5, "unit": "µg/mL"}, {"measurement": "MIC", "setting": "[1]; Acinetobacter ursingii, isolate NO-Ab120, Acinetobacter ursingii, in combinations ETZ fixed at 8 mg/L", "result": 0.5, "unit": "µg/mL"}, {"measurement": "MIC", "setting": "[1]; Acinetobacter ursingii, isolate NO-Ab123, Acinetobacter ursingii, in combinations ETZ fixed at 8 mg/L", "result": 2, "unit": "µg/mL"}, {"measurement": "MIC", "setting": "[1]; Acinetobacter ursingii, isolate NO-Ab126, Acinetobacter ursingii, in combinations ETZ fixed at 8 mg/L", "result": 1, "unit": "µg/mL"}, {"measurement": "MIC", "setting": "[1]; Acinetobacter ursingii, isolate NO-Ab147, Acinetobacter ursingii, in combinations ETZ fixed at 8 mg/L", "result": 2, "unit": "µg/mL"}, {"measurement": "MIC", "setting": "[1]; Acinetobacter ursingii, isolate NO-Ab155, Acinetobacter ursingii, in combinations ETZ fixed at 8 mg/L", "result": 1, "unit": "µg/mL"}, {"measurement": "MIC", "setting": "[1]; Acinetobacter ursingii, isolate NO-Ab165, Acinetobacter ursingii, in combinations ETZ fixed at 8 mg/L", "result": 1, "unit": "µg/mL"}, {"measurement": "MIC", "setting": "[1]; Acinetobacter ursingii, isolate NO-Ab166, Acinetobacter ursingii, in combinations ETZ fixed at 8 mg/L", "result": 0.25, "unit": "µg/mL"}, {"measurement": "MIC", "setting": "[1]; Acinetobacter ursingii, isolate NO-Ab214, Acinetobacter ursingii, in combinations ETZ fixed at 8 mg/L", "result": "≤ 0.06", "unit": "µg/mL"}, {"measurement": "MIC", "setting": "[1]; Acinetobacter ursingii, isolate NO-Ab221, Acinetobacter ursingii, in combinations ETZ fixed at 8 mg/L", "result": 0.5, "unit": "µg/mL"}, {"measurement": "MIC", "setting": "[1]; Acinetobacter ursingii, isolate NO-Ab222, Acinetobacter ursingii, in combinations ETZ fixed at 8 mg/L", "result": 0.5, "unit": "µg/mL"}, {"measurement": "MIC", "setting": "[1]; Acinetobacter, MBC set, isolate NO-Ab84, A. bereziniae", "result": 1, "unit": "µg/mL"}, {"measurement": "MIC", "setting": "[1]; Acinetobacter, MBC set, isolate NO-Ab88, A. dijkshoorniae", "result": 0.5, "unit": "µg/mL"}, {"measurement": "MIC", "setting": "[1]; Acinetobacter, isolate NO-Ab146, Acinetobacter iwoffii, in combinations ETZ fixed at 8 mg/L", "result": 2, "unit": "µg/mL"}, {"measurement": "MIC", "setting": "[1]; Acinetobacter, isolate NO-Ab159, Acinetobacter iwoffii, in combinations ETZ fixed at 8 mg/L", "result": 0.5, "unit": "µg/mL"}, {"measurement": "MIC50", "setting": "[1]; [4]", "result": 1, "unit": "µg/mL"}, {"measurement": "MIC90", "setting": "[1]; [4]", "result": 2, "unit": "µg/mL"}, {"measurement": "MBC", "setting": "[2]; Acinetobacter, isolate NO-Ab84, A. bereziniae", "result": 1, "unit": "µg/mL"}, {"measurement": "MBC", "setting": "[2]; Acinetobacter, isolate NO-Ab88, A. dijkshoorniae", "result": 0.5, "unit": "µg/mL"}, {"measurement": "MBC", "setting": "[2]; isolate Ab1, A. baumannii ST 164, ADC-6, OXA-91, non-CHDLs-producing", "result": 1, "unit": "µg/mL"}, {"measurement": "MBC", "setting": "[2]; isolate Ab4, A. baumannii ST 2, ADC-30, OXA-66, ISAba1-OXA-23", "result": 16, "unit": "µg/mL"}, {"measurement": "MBC", "setting": "[2]; isolate Ab6, A. baumannii ST 2, ADC-30, OXA-66, ISAba1-OXA-23, TEM-12", "result": 16, "unit": "µg/mL"}, {"measurement": "MBC", "setting": "[2]; isolate Ab9, A. baumannii ST 2, ADC-30, OXA-66, OXA-23, TEM-12", "result": 4, "unit": "µg/mL"}, {"measurement": "MBC", "setting": "[2]; isolate Ab11, A. baumannii ST 239, ADC-2, OXA-51, non-CHDLs-producing", "result": 2, "unit": "µg/mL"}, {"measurement": "MBC", "setting": "[2]; isolate Ab34, A. baumannii ST 2182, ADC-2, OXA-130, non-CHDLs-producing", "result": 0.5, "unit": "µg/mL"}, {"measurement": "MBC", "setting": "[2]; isolate NO-Ab89, A. pittii", "result": 0.5, "unit": "µg/mL"}, {"measurement": "MBC relative to MIC", "setting": "[2]; nine clinical isolates, most of the isolates", "result": "the same or up to twofold higher"}, {"measurement": "MIC", "setting": "[3]; isolate Ab4 (OXA-23)", "result": 16, "unit": "µg/mL"}, {"measurement": "MIC", "setting": "[3]; isolate Ab138 (OXA-58)", "result": 8, "unit": "µg/mL"}, {"measurement": "MIC", "setting": "[3]; isolate Ab180 (OXA-24/40)", "result": 2, "unit": "µg/mL"}]}]}
